# Reference: ChEMBL document CHEMBL4390652, “Design, biological evaluation and X-ray crystallography of nanomolar multifunctional ligands targeting simultaneously acetylcholinesterase and glycogen synthase kinase-3” (Eur J Med Chem, 2019)
# Key:
# [1] = test system: Epidermal growth factor receptor (Homo sapiens), P00533 [T790M]; assay: Binding affinity to human partial length EGFR T790M mutant (R669 to G1022 residues) expressed in mammalian expression system assessed as residual binding level at 10 uM by Kinomescan method relative to control
# [2] = molecular target: Serine/threonine-protein kinase WNK3 (Homo sapiens) (UniProt Q9BYP7); assay: Binding affinity to wild-type human partial length WNK3 (M1 to D434 residues) expressed in mammalian expression system assessed as residual binding level at 10 uM by Kinomescan method relative to control
# [3] = molecular target: Serine/threonine-protein kinase 16 (Homo sapiens) (UniProt O75716); assay: Binding affinity to wild-type human partial length STK16 (G11 to I305 residues) expressed in bacterial expression system assessed as residual binding level at 10 uM by Kinomescan method relative to control
# [4] = molecular target: Serine/threonine-protein kinase DCLK2 (Homo sapiens) (UniProt Q8N568); assay: Binding affinity to wild-type human partial length DCAMKL2 (K273 to V664 residues) expressed in bacterial expression system assessed as residual binding level at 10 uM by Kinomescan method relative to control
# [5] = molecular target: NUAK family SNF1-like kinase 2 (Homo sapiens) (UniProt Q9H093); assay: Binding affinity to wild-type human partial length SNARK (P22 to A333 residues) expressed in mammalian expression system assessed as residual binding level at 10 uM by Kinomescan method relative to control
# [6] = molecular target: Serine/threonine-protein kinase LATS2 (Homo sapiens) (UniProt Q9NRM7); assay: Binding affinity to wild-type human partial length LATS2 (Q641 to V1088 residues) expressed in mammalian expression system assessed as residual binding level at 10 uM by Kinomescan method relative to control
# [7] = molecular target: Serine/threonine-protein kinase N1 (Homo sapiens) (UniProt Q16512); assay: Binding affinity to wild-type human partial length PKN1 (E598 to C948 residues) expressed in bacterial expression system assessed as residual binding level at 10 uM by Kinomescan method relative to control
# Cholinesterase = Cholinesterase (Homo sapiens, UniProt P06276); assay: Inhibition of human serum BChE using BTCh as substrate preincubated for 20 mins followed by substrate addition and measured for 3 mins by Ellman's method
# [8] = molecular target: Mitogen-activated protein kinase kinase kinase 20 (Homo sapiens) (UniProt Q9NYL2); assay: Binding affinity to wild-type human partial length ZAK (M1 to L331 residues) expressed in bacterial expression system assessed as residual binding level at 10 uM by Kinomescan method relative to control
# [9] = molecular target: Mitogen-activated protein kinase kinase kinase kinase 3 (Homo sapiens) (UniProt Q8IVH8); assay: Binding affinity to wild-type human partial length MAP4K3 (M1 to D301 residues) expressed in bacterial expression system assessed as residual binding level at 10 uM by Kinomescan method relative to control
# [10] = molecular target: Cyclin-dependent kinase 18 (Homo sapiens) (UniProt Q07002); assay: Binding affinity to wild-type human full length PCTK3 (M3 to F474 residues) expressed in bacterial expression system assessed as residual binding level at 10 uM by Kinomescan method relative to control
# [11] = molecular target: Cyclin-dependent kinase 14 (Homo sapiens) (UniProt O94921); assay: Binding affinity to wild-type human full length PFTK1 (M1 to H451 residues) expressed in bacterial expression system assessed as residual binding level at 10 uM by Kinomescan method relative to control
# [12] = molecular target: Insulin receptor (Homo sapiens) (UniProt P06213); assay: Binding affinity to wild-type human partial length INSR (P997 to E1318 residues) expressed in mammalian expression system assessed as residual binding level at 10 uM by Kinomescan method relative to control
# [13] = molecular target: Proto-oncogene tyrosine-protein kinase receptor Ret (Homo sapiens) (UniProt P07949); assay: Binding affinity to wild-type human partial length RET (E713 to D1014 residues) expressed in bacterial expression system assessed as residual binding level at 10 uM by Kinomescan method relative to control
# [14] = molecular target: Ribosomal protein S6 kinase alpha-2 (Homo sapiens) (UniProt Q15349); assay: Binding affinity to wild-type human partial length C-terminal RSK3 kinase domain 2 (V403 to K700 residues) expressed in bacterial expression system assessed as residual binding level at 10 uM by Kinomescan method relative to control
# [15] = molecular target: Dual serine/threonine and tyrosine protein kinase (Homo sapiens) (UniProt Q6XUX3); assay: Binding affinity to wild-type human full length RIPK5 (M1 to T929 residues) expressed in mammalian expression system assessed as residual binding level at 10 uM by Kinomescan method relative to control
# [16] = molecular target: Serine/threonine-protein kinase 35 (Homo sapiens) (UniProt Q8TDR2); assay: Binding affinity to wild-type human partial length STK35 (G182 to A534 residues) expressed in bacterial expression system assessed as residual binding level at 10 uM by Kinomescan method relative to control
# [17] = molecular target: Phosphatidylinositol 4,5-bisphosphate 3-kinase catalytic subunit delta isoform (Homo sapiens) (UniProt O00329); assay: Binding affinity to wild-type human partial length PIK3CD (R108 to Q1044 residues) expressed in mammalian expression system assessed as residual binding level at 10 uM by Kinomescan method relative to control
# [18] = molecular target: Mitogen-activated protein kinase kinase kinase 10 (Homo sapiens) (UniProt Q02779); assay: Binding affinity to wild-type human partial length MLK2 (V52 to W380 residues) expressed in bacterial expression system assessed as residual binding level at 10 uM by Kinomescan method relative to control
# [19] = molecular target: Serine/threonine-protein kinase WNK2 (Homo sapiens) (UniProt Q9Y3S1); assay: Binding affinity to wild-type human partial length WNK2 (V47 to D482 residues) expressed in mammalian expression system assessed as residual binding level at 10 uM by Kinomescan method relative to control
# [20] = molecular target: TGF-beta receptor type-2 (Homo sapiens) (UniProt P37173); assay: Binding affinity to wild-type human partial length TGFBR2 (I218 to K567 residues) expressed in bacterial expression system assessed as residual binding level at 10 uM by Kinomescan method relative to control
# [21] = molecular target: cGMP-dependent protein kinase 1 (Homo sapiens) (UniProt Q13976); assay: Binding affinity to wild-type human partial length PRKG1 (L339 to F686 residues) expressed in bacterial expression system assessed as residual binding level at 10 uM by Kinomescan method relative to control
# [22] = molecular target: Mitogen-activated protein kinase 12 (Homo sapiens) (UniProt P53778); assay: Binding affinity to wild-type human full length p38-gamma (M1 to L367 residues) expressed in mammalian expression system assessed as residual binding level at 10 uM by Kinomescan method relative to control
# [23] = molecular target: Glycogen synthase kinase-3 alpha (Homo sapiens) (UniProt P49840); assay: Binding affinity to wild-type human full length GSK3A (M1 to S483 residues) expressed in bacterial expression system assessed as residual binding level at 10 uM by Kinomescan method relative to control
# [24] = molecular target: Cyclin-dependent kinase 9 (Homo sapiens) (UniProt P50750); assay: Binding affinity to wild-type human full length CDK9 (M1 to F372 residues) expressed in bacterial expression system assessed as residual binding level at 10 uM by Kinomescan method relative to control
# Serine/threonine-protein kinase WNK3 (Homo sapiens), sequence (Q9BYP7 whole entry, the tested form may be a part): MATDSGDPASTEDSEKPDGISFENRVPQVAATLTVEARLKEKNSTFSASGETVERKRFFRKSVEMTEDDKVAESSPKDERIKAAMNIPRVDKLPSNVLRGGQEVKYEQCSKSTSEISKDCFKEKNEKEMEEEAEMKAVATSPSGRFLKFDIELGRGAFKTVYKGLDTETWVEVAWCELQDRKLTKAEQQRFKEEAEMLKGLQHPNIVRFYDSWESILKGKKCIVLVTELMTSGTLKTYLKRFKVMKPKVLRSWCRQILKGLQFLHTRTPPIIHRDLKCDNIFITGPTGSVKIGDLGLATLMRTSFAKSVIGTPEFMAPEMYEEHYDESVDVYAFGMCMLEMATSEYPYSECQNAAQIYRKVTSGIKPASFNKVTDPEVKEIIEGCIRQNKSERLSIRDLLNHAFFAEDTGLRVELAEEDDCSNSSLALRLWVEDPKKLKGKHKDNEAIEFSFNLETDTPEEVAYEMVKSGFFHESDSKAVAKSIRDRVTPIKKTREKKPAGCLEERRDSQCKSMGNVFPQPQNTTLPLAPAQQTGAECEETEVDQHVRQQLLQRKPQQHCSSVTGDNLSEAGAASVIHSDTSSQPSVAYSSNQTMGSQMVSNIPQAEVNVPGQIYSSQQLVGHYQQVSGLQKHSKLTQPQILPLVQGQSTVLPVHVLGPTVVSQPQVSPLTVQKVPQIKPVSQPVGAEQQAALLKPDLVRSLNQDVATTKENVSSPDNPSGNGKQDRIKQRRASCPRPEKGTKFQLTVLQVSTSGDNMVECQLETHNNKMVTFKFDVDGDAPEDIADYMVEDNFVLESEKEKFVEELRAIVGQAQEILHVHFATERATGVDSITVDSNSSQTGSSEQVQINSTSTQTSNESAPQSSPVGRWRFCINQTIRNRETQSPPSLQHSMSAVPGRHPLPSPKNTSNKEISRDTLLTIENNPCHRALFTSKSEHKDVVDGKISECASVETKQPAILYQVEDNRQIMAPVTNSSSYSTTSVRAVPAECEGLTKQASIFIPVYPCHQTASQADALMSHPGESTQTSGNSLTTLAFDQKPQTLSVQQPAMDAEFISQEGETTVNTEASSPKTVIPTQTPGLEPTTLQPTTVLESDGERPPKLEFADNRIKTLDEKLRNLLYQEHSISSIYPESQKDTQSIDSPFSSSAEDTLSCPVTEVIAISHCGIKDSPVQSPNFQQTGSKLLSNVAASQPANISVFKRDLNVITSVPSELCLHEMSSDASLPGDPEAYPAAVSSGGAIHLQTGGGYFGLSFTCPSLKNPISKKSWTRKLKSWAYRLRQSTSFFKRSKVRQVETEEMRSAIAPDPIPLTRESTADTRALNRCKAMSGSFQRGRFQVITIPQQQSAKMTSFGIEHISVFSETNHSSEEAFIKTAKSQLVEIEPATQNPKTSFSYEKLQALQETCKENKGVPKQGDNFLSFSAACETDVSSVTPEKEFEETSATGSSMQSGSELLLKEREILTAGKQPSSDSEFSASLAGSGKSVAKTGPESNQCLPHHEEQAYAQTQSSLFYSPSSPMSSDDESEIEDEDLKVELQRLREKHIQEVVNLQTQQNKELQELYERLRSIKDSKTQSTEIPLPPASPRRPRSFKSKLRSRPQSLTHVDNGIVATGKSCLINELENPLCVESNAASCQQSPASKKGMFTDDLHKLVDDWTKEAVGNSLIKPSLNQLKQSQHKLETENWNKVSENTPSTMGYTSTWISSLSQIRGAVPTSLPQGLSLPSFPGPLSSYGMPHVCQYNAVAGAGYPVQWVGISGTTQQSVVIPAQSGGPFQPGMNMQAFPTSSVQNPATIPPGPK
# Serine/threonine-protein kinase DCLK2 (Homo sapiens), sequence (Q8N568 whole entry, the tested form may be a part): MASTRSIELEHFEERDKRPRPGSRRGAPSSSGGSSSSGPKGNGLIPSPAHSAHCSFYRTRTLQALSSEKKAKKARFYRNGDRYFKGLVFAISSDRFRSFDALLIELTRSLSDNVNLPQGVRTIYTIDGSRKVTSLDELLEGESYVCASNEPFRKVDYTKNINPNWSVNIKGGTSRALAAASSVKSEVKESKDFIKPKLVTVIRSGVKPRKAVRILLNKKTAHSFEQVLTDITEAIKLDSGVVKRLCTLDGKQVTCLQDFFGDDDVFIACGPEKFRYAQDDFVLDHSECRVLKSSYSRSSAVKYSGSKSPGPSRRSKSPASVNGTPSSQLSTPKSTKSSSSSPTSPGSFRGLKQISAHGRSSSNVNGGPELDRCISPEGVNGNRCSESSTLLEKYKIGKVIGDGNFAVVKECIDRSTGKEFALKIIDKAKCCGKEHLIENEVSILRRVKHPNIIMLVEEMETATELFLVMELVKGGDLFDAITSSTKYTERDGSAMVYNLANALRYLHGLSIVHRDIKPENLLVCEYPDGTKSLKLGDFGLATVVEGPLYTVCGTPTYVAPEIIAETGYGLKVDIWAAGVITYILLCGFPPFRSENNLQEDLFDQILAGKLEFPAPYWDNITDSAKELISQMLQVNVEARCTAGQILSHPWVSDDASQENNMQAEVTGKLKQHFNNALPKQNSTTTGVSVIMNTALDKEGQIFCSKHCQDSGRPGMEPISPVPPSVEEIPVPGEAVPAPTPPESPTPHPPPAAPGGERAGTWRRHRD
# Dual serine/threonine and tyrosine protein kinase (Homo sapiens), sequence (Q6XUX3 whole entry, the tested form may be a part): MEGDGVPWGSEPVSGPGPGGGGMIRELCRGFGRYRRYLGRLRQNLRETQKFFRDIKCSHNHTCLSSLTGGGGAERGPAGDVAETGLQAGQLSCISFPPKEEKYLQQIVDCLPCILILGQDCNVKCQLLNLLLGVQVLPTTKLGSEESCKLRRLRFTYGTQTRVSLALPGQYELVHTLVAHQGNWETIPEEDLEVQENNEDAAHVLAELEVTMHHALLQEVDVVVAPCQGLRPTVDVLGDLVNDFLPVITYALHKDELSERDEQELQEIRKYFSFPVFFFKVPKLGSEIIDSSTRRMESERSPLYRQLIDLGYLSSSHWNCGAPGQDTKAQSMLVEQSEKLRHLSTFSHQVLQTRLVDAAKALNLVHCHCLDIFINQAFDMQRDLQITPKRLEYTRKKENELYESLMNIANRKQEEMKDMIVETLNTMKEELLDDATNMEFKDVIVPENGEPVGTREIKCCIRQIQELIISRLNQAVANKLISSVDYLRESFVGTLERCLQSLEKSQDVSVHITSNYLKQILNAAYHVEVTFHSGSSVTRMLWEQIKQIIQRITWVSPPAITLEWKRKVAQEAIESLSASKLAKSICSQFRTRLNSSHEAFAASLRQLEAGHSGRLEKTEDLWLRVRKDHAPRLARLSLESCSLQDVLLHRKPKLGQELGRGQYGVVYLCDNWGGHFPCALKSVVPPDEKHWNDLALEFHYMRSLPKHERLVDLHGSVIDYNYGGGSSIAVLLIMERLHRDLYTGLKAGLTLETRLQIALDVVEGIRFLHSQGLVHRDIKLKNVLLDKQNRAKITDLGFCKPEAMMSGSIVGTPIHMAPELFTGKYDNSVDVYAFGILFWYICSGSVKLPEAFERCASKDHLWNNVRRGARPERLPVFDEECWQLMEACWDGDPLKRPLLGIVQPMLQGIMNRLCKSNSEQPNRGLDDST
# Glycogen synthase kinase-3 alpha (Homo sapiens), sequence (P49840 2-483 limits assumed): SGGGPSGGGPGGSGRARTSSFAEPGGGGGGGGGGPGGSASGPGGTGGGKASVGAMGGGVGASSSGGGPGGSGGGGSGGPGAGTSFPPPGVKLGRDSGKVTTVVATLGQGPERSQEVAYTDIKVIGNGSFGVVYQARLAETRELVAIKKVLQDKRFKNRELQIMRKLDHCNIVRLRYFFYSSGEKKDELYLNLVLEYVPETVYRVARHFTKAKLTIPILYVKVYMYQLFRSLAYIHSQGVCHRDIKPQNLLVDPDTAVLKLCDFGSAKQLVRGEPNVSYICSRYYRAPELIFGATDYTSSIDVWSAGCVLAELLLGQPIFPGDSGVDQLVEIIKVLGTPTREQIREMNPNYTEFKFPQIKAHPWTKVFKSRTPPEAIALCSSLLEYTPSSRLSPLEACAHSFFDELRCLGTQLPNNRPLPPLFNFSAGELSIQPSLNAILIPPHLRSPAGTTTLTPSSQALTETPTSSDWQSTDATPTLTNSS
# Mitogen-activated protein kinase kinase kinase 10 (Homo sapiens), sequence (Q02779 whole entry, looked up, the tested form may be a part): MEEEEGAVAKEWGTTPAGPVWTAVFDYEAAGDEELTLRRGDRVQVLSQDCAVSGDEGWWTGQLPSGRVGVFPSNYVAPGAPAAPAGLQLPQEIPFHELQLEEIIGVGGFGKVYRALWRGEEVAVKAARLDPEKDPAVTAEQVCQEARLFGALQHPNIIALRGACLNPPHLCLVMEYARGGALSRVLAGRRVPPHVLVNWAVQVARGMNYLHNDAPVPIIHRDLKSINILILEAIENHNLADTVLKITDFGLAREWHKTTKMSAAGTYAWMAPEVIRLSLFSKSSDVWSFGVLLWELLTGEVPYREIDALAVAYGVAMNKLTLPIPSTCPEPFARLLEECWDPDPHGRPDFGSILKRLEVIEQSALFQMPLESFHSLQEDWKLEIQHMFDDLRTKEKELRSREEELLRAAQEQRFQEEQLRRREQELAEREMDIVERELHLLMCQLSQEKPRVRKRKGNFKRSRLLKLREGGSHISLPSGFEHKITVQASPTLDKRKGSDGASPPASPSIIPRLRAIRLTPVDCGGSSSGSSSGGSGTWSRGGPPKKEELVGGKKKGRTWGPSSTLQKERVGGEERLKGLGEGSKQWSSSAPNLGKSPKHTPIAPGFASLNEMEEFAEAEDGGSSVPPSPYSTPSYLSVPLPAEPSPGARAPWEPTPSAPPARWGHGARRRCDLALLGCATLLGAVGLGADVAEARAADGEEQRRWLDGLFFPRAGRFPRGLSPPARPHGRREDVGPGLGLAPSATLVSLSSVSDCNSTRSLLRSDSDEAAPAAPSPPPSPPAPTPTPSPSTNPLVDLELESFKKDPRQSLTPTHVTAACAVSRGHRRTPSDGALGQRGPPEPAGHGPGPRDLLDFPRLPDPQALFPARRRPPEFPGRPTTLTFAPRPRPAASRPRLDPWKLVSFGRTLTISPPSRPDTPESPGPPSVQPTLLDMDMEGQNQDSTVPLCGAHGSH
compound,measurement,setting,value
O=C(Nc1cc(-c2cn(CCNc3c4c(nc5ccccc35)CCCC4)nn2)ccn1)Nc1cccc2c1C1CCCCN1C2=O (racemic),Activity,[1],70%
same,Activity,[2],100%
same,Activity,[3],1.9%
same,Activity,[4],90%
same,Activity,[5],1.9%
same,Activity,[6],65%
same,Activity,[7],18%
same,IC50,Cholinesterase,301 nM
same,Activity,[8],31%
same,Activity,[9],21%
same,Activity,[10],6.2%
same,Activity,[11],28%
same,Activity,[12],17%
same,Activity,[13],39%
same,Activity,[14],74%
same,Activity,[15],49%
same,Activity,[16],97%
same,Activity,[17],100%
same,Activity,[18],58%
same,Activity,[19],100%
same,Activity,[20],19%
same,Activity,[21],92%
same,Activity,[22],5.7%
same,Activity,[23],0.3%
same,Activity,[24],3.8%
